This note sets out measurements from PubChem BioAssay AID1218 (NMMLSC, 2008).

The target in the assay is Estrogen receptor beta (Homo sapiens) (UniProt Q92731). The experiment in a line: estrogen receptor beta signaling via PH-RFP translocation – imaging, Cos7 cells, ERbeta-GFP, PH-RFP reporter, orthogonal assay for ERbeta ligand project, confirmation (AID 1218). The settings on record: PIP3 translocation imaging, at 10 µM, active compounds read high.

Records with an inconclusive call do not appear. Active and inactive are the calls of the source.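 The calls were made as follows: active = score of 100, meaning the red fluorescent reporter moved fully into the nucleus as with estrogen, or estrogen's effect was fully blocked; inactive = score of 0 or 50, meaning partial or no effect.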

Estrogen receptor beta (Homo sapiens), sequence (Q92731 whole entry, looked up): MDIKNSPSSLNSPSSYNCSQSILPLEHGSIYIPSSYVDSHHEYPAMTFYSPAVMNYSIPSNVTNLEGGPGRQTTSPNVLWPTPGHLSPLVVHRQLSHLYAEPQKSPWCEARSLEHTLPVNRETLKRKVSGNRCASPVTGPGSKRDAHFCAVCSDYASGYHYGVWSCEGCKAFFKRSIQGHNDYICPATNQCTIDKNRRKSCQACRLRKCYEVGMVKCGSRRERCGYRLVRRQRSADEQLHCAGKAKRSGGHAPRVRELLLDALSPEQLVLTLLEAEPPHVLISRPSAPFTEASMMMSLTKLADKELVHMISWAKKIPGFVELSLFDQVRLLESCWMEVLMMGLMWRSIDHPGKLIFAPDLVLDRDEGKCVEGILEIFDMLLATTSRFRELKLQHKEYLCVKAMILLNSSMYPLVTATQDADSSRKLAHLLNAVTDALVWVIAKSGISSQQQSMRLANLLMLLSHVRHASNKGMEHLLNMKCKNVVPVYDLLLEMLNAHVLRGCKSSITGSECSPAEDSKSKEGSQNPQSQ

As to `Brc1cc2c(cc1C1Nc3ccccc3C3C=CCC31)OCO2` (stereo not drawn), the response score was 0 (inactive).

Take `COc1cccc(NS(=O)(=O)c2ccc3c(c2)C2C=CCC2C(c2ccc(C(=O)O)cc2)N3)c1` (stereo not drawn): the response score was 50 (inactive). In the case of `Cc1cc(-c2nn3c(-c4ccccc4)nnc3s2)c2ccccc2n1` it was 100; in that of `Cc1cc(C)c2c(c1)[C@@H]1C=CC[C@@H]1[C@H](c1ccc(S(=O)(=O)N3CCOCC3)cc1)N2`, 100. The result for `O=C(O)c1cc(Cl)c2c(c1)[C@@H]1C=CC[C@@H]1[C@H](c1ccc(S(=O)(=O)N3CCOCC3)cc1)N2` reads 50 (inactive); that for `COc1ccccc1N1CCN(C(=O)c2ccc3nc(-c4ccco4)c(-c4ccco4)nc3c2)CC1`, 100; that for `O=C(O)c1ccc2c(c1)C1C(Cl)C(Sc3ccccc3[N+](=O)[O-])CC1C(c1cccc([N+](=O)[O-])c1)N2` (stereo not drawn), 0 (inactive). Take `Nc1ncnc2c1ncn2C1CCC(CO)C(O)C1` (stereo not drawn): the response score is 50 (inactive).
